These results are taken from article PMC8868518, “Exploring Titanium(IV) Complexes as Potential Antimicrobial Compounds” (Antibiotics, 2022).

Structures can show the parent of a compound that is named as a salt.

Series [1] has as its system S. aureus MRSA (ATCC 43300). Nature of the series: CO-ADD antibacterial assay, growth inhibition (OD600). It counts as cell-based, Staphylococcus aureus. The protocol: (§1) Dry compounds ranging from 1–2 mg were weighed into properly labeled Eppendorf tubes and sealed with parafilm. The compounds were used as received by the CO-ADD. For the screenings, most compounds were dissolved to a stock concentration of 10 mg/mL in DMSO. K2[Ti(Citrate)3], Na3Citrate, and K2[TiO(Oxalate)2] were dissolved in warm water. […] Samples were diluted in water to a final testing concentration of 32 µg/mL while keeping the final co-solvent concentration to a maximum of 0.5%. Where applicable, compounds were serially diluted 1:2 fold eight times. Each sample concentration was prepared in 384-well plates, non-binding surface plate (NBS; Corning 3640) for each bacterial/fungal strain, tissue-culture treated (TC-treated; Corning 3712/3764), black for mammalian cell types and polypropylene 384-well (PP; Corning 3657) for hemolysis assays, all in duplicate (n = 2), and keeping the final DMSO concentration to a maximum of 0.5%. All sample preparation was conducted using liquid handling robots.
(§2) For the bacterial assays, four Gram-negative bacteria (E. coli (ATCC 25922, Manassas, VA, USA); K. pneumoniae (ATCC 700603), A. baumannii; (ATCC 19606), and P. aeruginosa (ATCC 27853) and the Gram-positive bacteria (S. aureus MRSA (ATCC 43300) were used. Each strain was cultured in cation-adjusted Mueller Hinton broth (CAMHB; Bacto Laboratories 212322, Mount Pritchard, Australia) at 37 °C overnight. A sample of each culture was then diluted 40-fold in fresh CAMHB and incubated at 37 °C for 1.5–3 h. The resultant mid-log phase cultures were diluted with CAMHB (CFU/mL measured by OD600), then added to each well of the compound-containing plates (384-well non-binding surface (NBS) plates; Corning CLS3640, Millipore Sigma, Burlington, MA, USA), giving a cell density of 5 × 10^5 CFU/mL and a total volume of 50 µL. Plates were covered and incubated at 37 °C for 18 h without shaking. Inhibition of bacterial growth was determined by measuring absorbance at 600 nm (OD600) with a Tecan M1000 Pro monochromator plate reader, using media-only as negative control and bacteria without inhibitors as a positive control. […] Colistin sulfate (Sigma C4461) and vancomycin HCl (Sigma 861987) were used as internal controls on each plate for Gram-negative and Gram-positive bacteria, respectively.

A further series relates to MRC-5 cells. As to conditions: cited from earlier work.
The subject of the next series is E. coli (ATCC 25922). Put plainly: CO-ADD antibacterial assay, growth inhibition (OD600). The format is cell-based, Escherichia coli. Particulars: up to 32 μg/mL. The protocol: as §1, §2
For series [2], the system named is A. baumannii (ATCC 19606). The description is as above. It counts as cell-based, Acinetobacter baumannii. As to conditions: up to 32 μg/mL. The protocol: as §1, §2
The next series relates to C. albicans (ATCC 90028). Nature of the series: CO-ADD antifungal assay, growth inhibition (OD630). As to conditions: up to 32 μg/mL. It counts as cell-based, Candida albicans. The protocol:
(§3) The compounds were used as received by the CO-ADD. For the screenings, most compounds were dissolved to a stock concentration of 10 mg/mL in DMSO. K2[Ti(Citrate)3], Na3Citrate, and K2[TiO(Oxalate)2] were dissolved in warm water. [Cu(Deferasirox)(H2O)]2 was dissolved in pyridine after its solubility was determined to be excellent in pyridine due to coordination of the solvent to the metal producing [Cu(Deferasirox)(pyridine)]2 in situ. […] Each sample concentration was prepared in 384-well plates, non-binding surface plate (NBS; Corning 3640) for each bacterial/fungal strain, tissue-culture treated (TC-treated; Corning 3712/3764), black for mammalian cell types and polypropylene 384-well (PP; […] All sample preparation was conducted using liquid handling robots. For the fungal assays, the fungi (C. albicans (ATCC 90028) and C. neoformans) (ATCC 208821) were used. Both fungi (yeast) strains were cultured for 3 days on Yeast Extract-Peptone Dextrose (YPD; Becton Dickinson 242720, Thermo Fisher Scientific, Waltham, MA, USA) agar at 30 °C. A yeast suspension of 1 × 10^6 to 5 × 10^6 CFU/mL (as determined by OD530) was prepared from five colonies from the agar plates, subsequently diluted with Yeast Nitrogen Base media (YNB; Becton Dickinson 233520, Thermo Fisher Scientific, Waltham, MA, USA), and added to each well of the compound-containing plates (384-well plates, NBS; Corning CLS3640) giving a final cell density of 2.5 × 10^3 CFU/mL and a total volume of 50 μL. Plates were covered and incubated at 35 °C for 36 h without shaking. […] Sigma R7017) and incubation at 35 °C for 2 h, using media-only as a negative control and fungi without inhibitors as a positive control. […] Fluconazole (Sigma F8929) was used as an internal control on each plate for both strains.

The test system of series [3] is HEK293 ATCC CRL-1573 human embryonic kidney cells. Put plainly: CO-ADD cytotoxicity assay (resazurin). It counts as cell-based. The protocol:
The compounds were used as received by the CO-ADD. For the screenings, most compounds were dissolved to a stock concentration of 10 mg/mL in DMSO. K2[Ti(Citrate)3], Na3Citrate, and K2[TiO(Oxalate)2] were dissolved in warm water. [Cu(Deferasirox)(H2O)]2 was dissolved in pyridine after its solubility was determined to be excellent in pyridine due to coordination of the solvent to the metal producing [Cu(Deferasirox)(pyridine)]2 in situ. […] Each sample concentration was prepared in 384-well plates, non-binding surface plate (NBS; Corning 3640) for each bacterial/fungal strain, tissue-culture treated (TC-treated; Corning 3712/3764), black for mammalian cell types and polypropylene 384-well (PP; […] All sample preparation was conducted using liquid handling robots. HEK293 ATCC CRL-1573 human embryonic kidney cells were counted manually in a Neubauer hemocytometer and added to compound-containing plates (384-well plates, tissue culture-treated (TC); […] Life Technologies 11995-073) with 10% FBS (GE SH30084.03).
(Resazurin is reduced to fluorescent resorufin, in cell work by metabolically active cells.)

Series [4] deals with C. neoformans (ATCC 208821). Nature of the series: CO-ADD antifungal assay, growth inhibition (resazurin, OD600-570). It counts as cell-based, Cryptococcus neoformans. Particulars: up to 32 μg/mL. The protocol: as §3
Series [5] deals with K. pneumoniae (ATCC 700603). Put plainly: CO-ADD antibacterial assay, growth inhibition (OD600). It counts as cell-based, Klebsiella pneumoniae. As to conditions: up to 32 μg/mL. The protocol:
as §1, §2

For series [6], the system named is P. aeruginosa (ATCC 27853). The series is described as above. As to conditions: up to 32 μg/mL. It counts as cell-based, Pseudomonas aeruginosa. The protocol:
as §1, §2

Setting [7] is: predicted or measured MIC, ≥75% growth inhibition.
Where [8] appears, read: predicted or measured MIC, ≥75% growth inhibition, 36 h.

On to “4-[(3Z,5E)-3,5-Bis(6-oxocyclohexa-2,4-dien-1-ylidene)-1,2,4-triazolidin-1-yl] benzoic acid [Compound 4, reference compound]”, for which the “MIC S. aureus (MRSA)” value in series [1] (predicted or measured MIC, lowest concentration with ≥75% growth inhibition, 0.25-32 μg/mL, 18 h) was more than 32 µg/mL. Also, the “Dmax S. aureus (MRSA), maximum % inhibition” value in series [1] (up to 32 μg/mL) amounted to 44.31%. Besides, in the series with MRC-5 cells, the “IC50 ± SD (µM)” value is reported as “Proliferative Behavior” and the “increase in the proliferation of MRC-5 cells” value is “nearly three-fold increase”. For the same compound, in the series with E. coli (ATCC 25922) (setting [7]), the “MIC E. coli” value is more than 32 µg/mL. For the same compound, the “Dmax E. coli, maximum % inhibition” value in the series with E. coli (ATCC 25922) came to 7.72%. In series [2] (setting [7]), the “MIC A. baumannii” value is more than 32 µg/mL. Further, the “Dmax A. baumannii, maximum % inhibition” value in series [2] was determined as 18.95%. The “MIC C. albicans” value in the series on C. albicans (ATCC 90028) (setting [8]) was more than 32 µg/mL. Also, the “Dmax C. albicans, maximum % inhibition” value in the series on C. albicans (ATCC 90028) came to 4.31%. Further, the “antiproliferative effect against HEK293 (in words)” value in series [3] (all concentrations examined (0.25-32 μg/mL), 20 h, CC50 could not be measured) is “inactive”. For the same compound, the “MIC C. neoformans” value in series [4] (setting [8]) was more than 32 µg/mL. In addition, the “Dmax C. neoformans, maximum % inhibition” value in series [4] is −25.58%. Moreover, the “MIC K. pneumoniae” value in series [5] (setting [7]) was more than 32 µg/mL. In addition, in [5], the “Dmax K. pneumoniae, maximum % inhibition” value worked out at 20.2%. Moreover, the “MIC P. aeruginosa” value in series [6] (setting [7]) was more than 32 µg/mL. The “Dmax P. aeruginosa, maximum % inhibition” value in series [6] stood at 5.82%.

For the compound `O=C(O)CN(CCN(CC(=O)O)Cc1ccccc1O)Cc1ccccc1O` [Compound 5, N,N′-di(o-hydroxybenzyl)ethylenediamine-N,N′-diacetic acid monohydrochloride hydrate, reference compound], the MIC was more than 32 µg/mL in [1] (Staphylococcus aureus, predicted or measured MIC, lowest concentration with ≥75% growth inhibition, 0.25-32 μg/mL, 18 h); more than 32 µg/mL with E. coli (ATCC 25922) (Escherichia coli, ATCC25922, predicted or measured MIC, ≥75% growth inhibition); more than 32 µg/mL in series [2] (Acinetobacter baumannii, ATCC19606, predicted or measured MIC, ≥75% growth inhibition); more than 32 µg/mL in the series on C. albicans (ATCC 90028) (Candida albicans, ATCC90028, predicted or measured MIC, ≥75% growth inhibition, 36 h); more than 32 µg/mL in [4] (Cryptococcus neoformans, ATCC208821, predicted or measured MIC, ≥75% growth inhibition, 36 h); more than 32 µg/mL in [5] (Klebsiella pneumoniae, ATCC700603, predicted or measured MIC, ≥75% growth inhibition). Besides, in [6] (Pseudomonas aeruginosa, ATCC27853, predicted or measured MIC, ≥75% growth inhibition), the MIC was more than 32 µg/mL. Besides, the Dmax in [1] (Staphylococcus aureus, up to 32 μg/mL, read-out: Dmax S. aureus (MRSA), maximum % inhibition) was 24.3%; with E. coli (ATCC 25922) (Escherichia coli, ATCC25922, read-out: Dmax E. coli, maximum % inhibition), 51.6%; in [2] (Acinetobacter baumannii, ATCC19606, read-out: Dmax A. baumannii, maximum % inhibition), 68.3%; in the series on C. albicans (ATCC 90028) (Candida albicans, ATCC90028, read-out: Dmax C. albicans, maximum % inhibition), 3.5%; in series [4] (Cryptococcus neoformans, ATCC208821, read-out: Dmax C. neoformans, maximum % inhibition) it was -17.5%; in [5] (Klebsiella pneumoniae, ATCC700603, read-out: Dmax K. pneumoniae, maximum % inhibition), 52.9%. Moreover, in [6] (Pseudomonas aeruginosa, ATCC27853, read-out: Dmax P. aeruginosa, maximum % inhibition), the Dmax came out at 69%. The “IC50 ± SD (µg/mL)” value in the series with MRC-5 cells is on record as >>44.3 µg/mL. The IC50 with MRC-5 cells (read-out: IC50 ± SD) was more than 100 µM. In [3] (at the maximum concentration tested), the “inhibition of HEK293 cell proliferation” value is approximately 50%.

By MIC is commonly meant the lowest concentration that inhibits growth of the organism. The IC50 is the concentration needed to halve the response being measured.
